Data: patent US9114067B2, “Local administration of gallium compositions to treat pain” (priority 2006, dated 2015)
Where two headings read alike, the source gives them in different places.

Tests used:
postherpetic neuralgia [1] = experiment: Case report: gallium maltolate cream to treat postherpetic neuralgia (person); type: in vivo, human; details: tried over about three years before gallium treatment
Method: A person had been experiencing postherpetic neuralgia with erythema on the left side of their face for approximately three years. The pain was so severe that it interfered with sleep and other daily activities. During that period they had tried numerous systemic analgesics to relieve the pain, including amitriptyline 25 mg BID, methadone 5 mg BID, carbamazepine 100 mg BID, gabapentin 200 mg QD, oxycodone 20 mg BID, naproxen, acetaminophen, and intravenous hydrogen peroxide. […] They then began treatment using the topical gallium maltolate formulation of Example 1, above. This formulation was applied three times per day to the affected area, at about 8 AM, 1 PM, and 9 PM, every day for four weeks. The formulation was administered by dipping a fingertip lightly into the formulation, and then smearing the formulation from the fingertip onto the affected area.

[2] = tested on: peripheral neuropathic pain; details: cited from earlier work
vaginal inflammation = experiment: Case report: gallium maltolate cream to treat pain and itching associated with vaginal inflammation (person); type: in vivo, human; details: for effect of earlier topical treatment on vaginal inflammation symptoms: same patient before gallium treatment
[3] = tested on: painful diabetic neuropathy; details: Wiffen et al. 2005; cited from earlier work
postherpetic neuralgia [4] = details: cited from earlier work
[5] = tested on: non-malignant neuropathic pain; details: cited from earlier work
[6] = meta-analysis, Eisenberg et al. 2005

For `CC(=O)Nc1ccc(O)cc1` [acetaminophen], the “pain relief from earlier treatments tried by the same patient” value (from here on “pain relief … by the same patient”) (postherpetic neuralgia [1]) was “None of these treatments produced significant pain relief”.

In the case of `CN(C)CCC=C1c2ccccc2CCc2ccccc21` [amitriptyline], the “pain relief … by the same patient” value (postherpetic neuralgia [1]) is given as “None of these treatments produced significant pain relief”, the “NNT (number needed to treat) for moderate pain relief” value ([2]; Saarto and Wiffen 2005) is given as 2 and the “share of those treated with at least moderate pain relief” value ([2]; explanation of NNT 2) is given as 50%.

For `CCOC(=O)c1ccc(N)cc1` [benzocaine], the “effect of earlier topical treatment on vaginal inflammation symptoms” value (vaginal inflammation) was “little effect”.

For `NC(=O)N1c2ccccc2C=Cc2ccccc21` [carbamazepine], the “pain relief … by the same patient” value (postherpetic neuralgia [1]) is given as “None of these treatments produced significant pain relief” and the “NNT for moderate pain relief” value [3] is given as 2.3.

In the case of `NCC1(CC(=O)O)CCCCC1` [gabapentin], the “NNT for moderate pain relief” value (postherpetic neuralgia [4]; postherpetic neuralgia, Wiffen et al. 2005) is listed as 3.2, the “pain relief … by the same patient” value (postherpetic neuralgia [1]) is listed as “None of these treatments produced significant pain relief” and the “NNT for moderate pain relief” value [3] is listed as 3.8.

For `OO` [hydrogen peroxide], the “pain relief … by the same patient” value (postherpetic neuralgia [1]) was “None of these treatments produced significant pain relief”.

For `CN1CC[C@]23CCCC[C@H]2[C@H]1Cc1ccc(O)cc13` [levorphanol], the “subjects who dropped out of the study due to drug side effects” value (postherpetic neuralgia [4]; Rowbotham et al. 2003) is given as 31%, the “average reduction in pain” value (postherpetic neuralgia [4]; high dose, Rowbotham et al. 2003) is given as 33% and the “average reduction in pain” value (postherpetic neuralgia [4]; low dose, Rowbotham et al. 2003) is given as 14%. For the same compound, the “efficacy in intermediate-term (8-56 day) studies” value (“efficacy in intermediate-term” for short) [5, 6] was “marginal efficacy” and the “efficacy in short-term (24 hour) studies” value [5, 6] was “marginal to no efficacy”.

In the case of `CCC(=O)C(CC(C)N(C)C)(c1ccccc1)c1ccccc1` (stereo not shown) [methadone], the “efficacy in intermediate-term” value [5, 6] is given as “marginal efficacy”, the “efficacy in short-term (24 hour) studies” value [5, 6] is given as “marginal to no efficacy” and the “pain relief … by the same patient” value (postherpetic neuralgia [1]) is given as “None of these treatments produced significant pain relief”.

With `Clc1ccc(COC(Cn2ccnc2)c2ccc(Cl)cc2Cl)c(Cl)c1` (stereo not shown) [miconazole] the “local tolerability of earlier topical treatment” value (vaginal inflammation; same patient) was “irritating” and the “effect of earlier topical treatment on vaginal inflammation symptoms” value (vaginal inflammation) was “ineffective”.

For `CN1CC[C@]23c4c5ccc(O)c4O[C@H]2[C@@H](O)C=C[C@H]3[C@H]1C5` [morphine], the “efficacy in intermediate-term” value ([5]; in vivo) is given as “marginal efficacy” and the “efficacy in short-term (24 hour) studies” value ([5]; in vivo) is given as “marginal to no efficacy”.

With `COc1ccc2cc([C@H](C)C(=O)O)ccc2c1` [naproxen] the “pain relief … by the same patient” value (postherpetic neuralgia [1]) was “None of these treatments produced significant pain relief”.

For `COc1ccc2c3c1O[C@H]1C(=O)CC[C@@]4(O)[C@@H](C2)N(C)CC[C@]314` [oxycodone], the “efficacy in intermediate-term” value [5, 6] is given as “marginal efficacy”, the “efficacy in short-term (24 hour) studies” value [5, 6] is given as “marginal to no efficacy” and the “pain relief … by the same patient” value (postherpetic neuralgia [1]) is given as “None of these treatments produced significant pain relief”.

In the case of `O=C1NC(=O)C(c2ccccc2)(c2ccccc2)N1` [phenytoin], the “NNT for moderate pain relief” value [3] is listed as 2.1.
